Laboratory results taken from article doi:10.1101/2024.11.24.625011v1 (biorxiv, 2024).

Molecular target: T1, RetSDISMED2 (PaRetSp); RetS (residues 41-185) (Pseudomonas aeruginosa, UniProt Q9HUV7)
T1 sequence (Q9HUV7 41-185): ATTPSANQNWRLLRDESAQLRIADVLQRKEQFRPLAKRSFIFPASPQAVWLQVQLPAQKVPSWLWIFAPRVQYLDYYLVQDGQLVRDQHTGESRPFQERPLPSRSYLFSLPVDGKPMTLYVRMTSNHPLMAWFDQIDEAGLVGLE
Assay: isothermal titration calorimetry
Assay type: binding

Kd [nM] | Structure (SMILES)
~3600 | CCCCc1oc2ccc(NS(C)(=O)=O)cc2c1C(=O)c1ccc(OCCCN(CCCC)CCCC)cc1 [dronedarone]
~1000 | NC[C@H](O)c1ccc(O)c(O)c1 [norepinephrine]
